By inhibition is commonly meant the share of the control response that was lost under treatment. A word on the pKi: it is the negative decadic logarithm of the Ki, by convention in mol/L.

This is an account of results in patent US4921958A, “Piperazinylalkylcarboxylic acid adamantylamides” (American Home Products Corporation, priority 1989, dated 1990).

The target in assay [1] is T1, limbic D2 (dopamine) receptor (Rattus norvegicus, UniProt P61169).
T1 construct: from tissue; host or cells: limbic brain tissue
T1 sequence (P61169 whole entry): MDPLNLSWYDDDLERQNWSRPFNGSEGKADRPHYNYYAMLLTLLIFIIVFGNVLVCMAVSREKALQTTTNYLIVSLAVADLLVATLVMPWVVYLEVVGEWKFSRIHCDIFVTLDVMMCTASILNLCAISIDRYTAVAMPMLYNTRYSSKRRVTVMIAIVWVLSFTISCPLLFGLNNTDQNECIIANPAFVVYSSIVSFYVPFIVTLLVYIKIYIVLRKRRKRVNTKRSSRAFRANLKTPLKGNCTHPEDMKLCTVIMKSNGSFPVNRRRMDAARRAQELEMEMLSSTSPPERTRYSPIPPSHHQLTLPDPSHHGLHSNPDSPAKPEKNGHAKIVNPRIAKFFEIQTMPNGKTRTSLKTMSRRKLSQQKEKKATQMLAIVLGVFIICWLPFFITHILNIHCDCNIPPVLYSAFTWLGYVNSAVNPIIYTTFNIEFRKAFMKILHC
As to the kind of experiment: Inhibition of 3H-spiroperidol binding to limbic brain tissue (D2 receptor affinity; modified Fields et al. and Yamamura et al.). Particulars: 1 μM test compound. As for the experimental part:
The compounds of this invention are antidepressant, anxiolytic agents useful in the treatment of depression and/or anxiety as a singular, primary mental problem as well as secondary, attending problems such as sexual dysfunction. […] The D2 receptor affinity of the compounds of this invention was determined by a modification of the test procedure of Fields et al., Brain Res. 136, 578 (1977) and Yamamura et. al., eds., Neurotransmitter Receptor Binding, Raven Press, N.Y. (1978) as discussed in U.S. No. 4,636,563. The percentage reduction of ^3 H-spiroperidol binding at 1 μM concentration of test compound is reported, infra.

Assay [2] concerns the target T2, 5-HT1A serotonin receptor subtype (Rattus norvegicus, UniProt P19327).
T2 construct: from tissue
T2 sequence (P19327 1-422): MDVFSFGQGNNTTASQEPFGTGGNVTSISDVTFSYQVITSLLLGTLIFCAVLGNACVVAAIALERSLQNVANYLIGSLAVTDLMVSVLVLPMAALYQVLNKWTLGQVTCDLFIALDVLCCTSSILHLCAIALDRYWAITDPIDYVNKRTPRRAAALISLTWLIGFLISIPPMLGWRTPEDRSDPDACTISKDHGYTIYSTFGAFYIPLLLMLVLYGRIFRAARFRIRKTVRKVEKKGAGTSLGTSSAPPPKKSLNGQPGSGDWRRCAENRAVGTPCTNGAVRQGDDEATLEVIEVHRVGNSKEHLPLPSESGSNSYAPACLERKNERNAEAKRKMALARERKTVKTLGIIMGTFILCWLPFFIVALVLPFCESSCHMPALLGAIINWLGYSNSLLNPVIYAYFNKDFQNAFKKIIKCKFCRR
Put plainly: Displacement of 3H-8-OH DPAT from the 5-HT1A serotonin receptor subtype (Hall et al.). In kind it is binding. The note with it: for inhibition at 1 µM: 1 μM test compound, read-out: % Inhibition at 1 μM (Affinity for 5-HT1A Receptor Sites); for pKi: calculated from appropriate IC50 values, 3H-8-OH DPAT, read-out: Ki (Affinity for 5-HT1A Receptor Sites).
Source text: The serotoninergic properties of the compounds of this invention were established by the procedure of Hall et al., J. Neurochem.

For assay [3] the following is noted: in words, Barone et al., 1986; cited from earlier work.
The mark [4] stands for this setting: 3H-spiroperidol, read-out: % Inhibition at 1 μM (Affinity for D2 Receptor Sites).

pKi: −log10 of the molar value. Read-outs that look alike come from different tables or passages of the source.

In the case of `O=C(CCN1CCN(c2ncccn2)CC1)NC12CC3CC(CC(C3)C1)C2` [Example 1, 4-(2-pyrimidyl)-N-tricyclo[3.3.1.1(3.7)]dec-1-yl-1-piperazinepropanamide], the inhibition at 1 µM in assay [1] (setting [4]) came out at 14%; in assay [2] (displacement of 3H-8-OH DPAT), 79%. Further, the pKi in assay [2] was 6.89.

As for `COc1ccccc1N1CCN(CCC(=O)NC23CC4CC(CC(C4)C2)C3)CC1` [Example 2, 4-(2-methoxyphenyl)-N-tricyclo[3.3.1.1(3,7)]dec-1-yl-1-piperazinepropanamide], the inhibition at 1 µM was determined as 74% in assay [1] (setting [4]); 74% in assay [1] (limbic brain tissue, read-out: inhibition of 3H-spiroperidol binding to limbic brain tissue); 100% in assay [2] (displacement of 3H-8-OH DPAT). Also, the inhibition at 0.1 µM in assay [2] (100 nM test compound, displacement of 3H-8-OH DPAT, read-out: % Inhibition at 100 nM (Affinity for 5-HT1A Receptor Sites)) is 86%. Further, in assay [2], the pKi is 8.05.

As to `COc1ccccc1N1CCN(CC(C(=O)NC23CC4CC(CC(C4)C2)C3)c2ccccc2)CC1` (stereo not shown) [Example 3, N-(1-Tricyclo[3.3.1.1(3,7)]decyl)-3-[1-[4-(2-methoxyphenyl)piperazinyl]]-2-phenylpropanamide], in assay [2], the pKi was 7.08.

Consider `Cc1nc2sccn2c(=O)c1CCN1CCC(=C(c2ccc(F)cc2)c2ccc(F)cc2)CC1` [Ritanserin], for which, in assay [3], the “clinical efficacy as anxiolytic-antidepressant agents” value is “demonstrate clinical efficacy”.
